The values below come from the NIST ThermoML archive (doi:10.1016/j.jct.2005.04.010).

± gives the expanded uncertainty stated by the source.

This data set in a line: activity coefficient (dimensionless); of the first substance listed, at infinite dilution; xn = mol fraction of the nth substance listed. The settings on record: Liquid, x1 = 0.

In the case of `CC(C)OC(C)C` [diisopropyl ether] + CCCCCC[n+]1ccn(C)c1.O=S(=O)([N-]S(=O)(=O)C(F)(F)F)C(F)(F)F, the activity coefficient by setting is: (303.15 K, Chromatography) 2.76 ± 0.13; (313.15 K, Chromatography) 2.82 ± 0.13; (323.15 K, Chromatography) 2.85 ± 0.13; (333.15 K, Chromatography) 2.92 ± 0.13.

With `CCO` [ethanol] + CCCCCCCCn1cc[n+](C)c1.O=S(=O)([N-]S(=O)(=O)C(F)(F)F)C(F)(F)F, the activity coefficient was determined as 1.46 ± 0.06 (303.15 K, Chromatography); 1.34 ± 0.05 (313.15 K, Chromatography); 1.22 ± 0.04 (323.15 K, Chromatography); 1.12 ± 0.03 (333.15 K, Chromatography).

Turning to `CCO` [ethanol] + CCCCCC[n+]1ccn(C)c1.O=S(=O)([N-]S(=O)(=O)C(F)(F)F)C(F)(F)F, the activity coefficient is, setting by setting: (303.15 K, Chromatography) 1.6 ± 0.06; (313.15 K, Chromatography) 1.47 ± 0.06; (323.15 K, Chromatography) 1.36 ± 0.05; (333.15 K, Chromatography) 1.27 ± 0.04.

On to `CCO` [ethanol] + CCCC[N+]1(C)CCCC1.O=S(=O)([N-]S(=O)(=O)C(F)(F)F)C(F)(F)F, for which the activity coefficient runs as follows: (303.15 K, dilutor) 1.84 ± 0.09; (313.15 K, dilutor) 1.73 ± 0.09; (323.15 K, dilutor) 1.63 ± 0.08; (333.15 K, dilutor) 1.5 ± 0.08.

As for `CCCCCCC` [heptane] + CCCCCCCCn1cc[n+](C)c1.O=S(=O)([N-]S(=O)(=O)C(F)(F)F)C(F)(F)F, the activity coefficient came to 6.82 ± 0.31 (303.15 K, Chromatography); 7.01 ± 0.35 (303.15 K, dilutor); 6.55 ± 0.3 (313.15 K, Chromatography); 6.81 ± 0.34 (313.15 K, dilutor); 6.38 ± 0.29 (323.15 K, Chromatography); 6.57 ± 0.33 (323.15 K, dilutor). Moreover, the activity coefficient was 6.21 ± 0.28 (333.15 K, Chromatography) and 6.4 ± 0.32 (333.15 K, dilutor).

`CCCCCCC` [heptane] + CCCCCC[n+]1ccn(C)c1.O=S(=O)([N-]S(=O)(=O)C(F)(F)F)C(F)(F)F: the activity coefficient is, setting by setting: (303.15 K, Chromatography) 11.2 ± 0.5; (303.15 K, dilutor) 11 ± 0.6; (313.15 K, Chromatography) 10.6 ± 0.5; (313.15 K, dilutor) 10.6 ± 0.5; (323.15 K, Chromatography) 10 ± 0.5; (323.15 K, dilutor) 10.1 ± 0.5. In addition, the activity coefficient stood at 9.67 ± 0.44 (333.15 K, Chromatography) and 9.77 ± 0.49 (333.15 K, dilutor).

As for `CCCCCCC` [heptane] + CCCC[N+]1(C)CCCC1.O=S(=O)([N-]S(=O)(=O)C(F)(F)F)C(F)(F)F, the activity coefficient was found to be 20.7 ± 1 (303.15 K, dilutor); 19.3 ± 1 (313.15 K, dilutor); 18.2 ± 0.9 (323.15 K, dilutor); 17.2 ± 0.9 (333.15 K, dilutor).

With `C=CCCCC` [hex-1-ene] + CCCCCCCCn1cc[n+](C)c1.O=S(=O)([N-]S(=O)(=O)C(F)(F)F)C(F)(F)F, the activity coefficient was found to be 3.29 ± 0.15 (303.15 K, Chromatography); 3.33 ± 0.17 (303.15 K, dilutor); 3.27 ± 0.15 (313.15 K, Chromatography); 3.3 ± 0.17 (313.15 K, dilutor); 3.18 ± 0.14 (323.15 K, Chromatography); 3.27 ± 0.16 (323.15 K, dilutor). Moreover, the activity coefficient (333.15 K, Chromatography) came to 3.18 ± 0.14 and the activity coefficient (333.15 K, dilutor) is 3.23 ± 0.16.

In the case of `C=CCCCC` [hex-1-ene] + CCCCCC[n+]1ccn(C)c1.O=S(=O)([N-]S(=O)(=O)C(F)(F)F)C(F)(F)F, the activity coefficient came to 4.71 ± 0.21 (303.15 K, Chromatography); 4.64 ± 0.23 (303.15 K, dilutor); 4.61 ± 0.21 (313.15 K, Chromatography); 4.56 ± 0.23 (313.15 K, dilutor); 4.48 ± 0.2 (323.15 K, Chromatography); 4.48 ± 0.22 (323.15 K, dilutor). The activity coefficient runs as follows: (333.15 K, Chromatography) 4.44 ± 0.2; (333.15 K, dilutor) 4.39 ± 0.22.

As for `C=CCCCC` [hex-1-ene] + CCCC[N+]1(C)CCCC1.O=S(=O)([N-]S(=O)(=O)C(F)(F)F)C(F)(F)F, the activity coefficient (303.15 K, dilutor) was 7.08 ± 0.35; the activity coefficient (313.15 K, dilutor) is 6.92 ± 0.35; the activity coefficient (323.15 K, dilutor) stood at 6.82 ± 0.34; the activity coefficient (333.15 K, dilutor) stood at 6.64 ± 0.33.

As for `CCCCCC` [hexane] + CCCCCCCCn1cc[n+](C)c1.O=S(=O)([N-]S(=O)(=O)C(F)(F)F)C(F)(F)F, the activity coefficient came to 5.32 ± 0.24 (303.15 K, Chromatography); 5.44 ± 0.27 (303.15 K, dilutor); 5.13 ± 0.23 (313.15 K, Chromatography); 5.26 ± 0.26 (313.15 K, dilutor); 4.92 ± 0.22 (323.15 K, Chromatography); 5.13 ± 0.26 (323.15 K, dilutor). For the same molecule, the activity coefficient came out at 4.8 ± 0.22 (333.15 K, Chromatography) and 4.97 ± 0.25 (333.15 K, dilutor).

With `CCCCCC` [hexane] + CCCCCC[n+]1ccn(C)c1.O=S(=O)([N-]S(=O)(=O)C(F)(F)F)C(F)(F)F, the activity coefficient by setting is: (303.15 K, Chromatography) 8.23 ± 0.38; (303.15 K, dilutor) 7.82 ± 0.39; (313.15 K, Chromatography) 7.82 ± 0.36; (313.15 K, dilutor) 7.55 ± 0.38; (323.15 K, Chromatography) 7.48 ± 0.34; (323.15 K, dilutor) 6.96 ± 0.35. Moreover, the activity coefficient reads like this: (333.15 K, Chromatography) 7.27 ± 0.33; (333.15 K, dilutor) 6.55 ± 0.33.

With `CCCCCC` [hexane] + CCCC[N+]1(C)CCCC1.O=S(=O)([N-]S(=O)(=O)C(F)(F)F)C(F)(F)F, the activity coefficient runs as follows: (303.15 K, dilutor) 13.8 ± 0.7; (313.15 K, dilutor) 13.3 ± 0.7; (323.15 K, dilutor) 12.1 ± 0.6; (333.15 K, dilutor) 11 ± 0.6.

`CO` [methanol] + CCCCCCCCn1cc[n+](C)c1.O=S(=O)([N-]S(=O)(=O)C(F)(F)F)C(F)(F)F: the activity coefficient (303.15 K, Chromatography) was 1.23 ± 0.04; the activity coefficient (313.15 K, Chromatography) worked out at 1.14 ± 0.03; the activity coefficient (323.15 K, Chromatography) was 1.03 ± 0.03; the activity coefficient (333.15 K, Chromatography) was 0.96 ± 0.03.

Regarding `CO` [methanol] + CCCCCC[n+]1ccn(C)c1.O=S(=O)([N-]S(=O)(=O)C(F)(F)F)C(F)(F)F, the activity coefficient amounted to 1.3 ± 0.04 (303.15 K, Chromatography); 1.19 ± 0.04 (313.15 K, Chromatography); 1.16 ± 0.06 (313.15 K, dilutor); 1.1 ± 0.03 (323.15 K, Chromatography); 1.14 ± 0.06 (323.15 K, dilutor); 1.02 ± 0.03 (333.15 K, Chromatography). Moreover, for the setting “333.15 K, dilutor”, the activity coefficient stood at 1.05 ± 0.05.

Regarding `C=CCCCCCC` [oct-1-ene] + CCCCCCCCn1cc[n+](C)c1.O=S(=O)([N-]S(=O)(=O)C(F)(F)F)C(F)(F)F, the activity coefficient reads like this: (303.15 K, Chromatography) 5.57 ± 0.25; (313.15 K, Chromatography) 5.48 ± 0.25; (323.15 K, Chromatography) 5.32 ± 0.24; (333.15 K, Chromatography) 5.28 ± 0.24.

Turning to `C=CCCCCCC` [oct-1-ene] + CCCCCC[n+]1ccn(C)c1.O=S(=O)([N-]S(=O)(=O)C(F)(F)F)C(F)(F)F, the activity coefficient runs as follows: (303.15 K, Chromatography) 8.81 ± 0.4; (303.15 K, dilutor) 8.28 ± 0.41; (313.15 K, Chromatography) 8.47 ± 0.39; (313.15 K, dilutor) 8.08 ± 0.4; (323.15 K, Chromatography) 8.18 ± 0.38; (323.15 K, dilutor) 7.92 ± 0.4. The activity coefficient by setting is: (333.15 K, Chromatography) 7.9 ± 0.36; (333.15 K, dilutor) 7.77 ± 0.39.

Consider `C=CCCCCCC` [oct-1-ene] + CCCC[N+]1(C)CCCC1.O=S(=O)([N-]S(=O)(=O)C(F)(F)F)C(F)(F)F, for which the activity coefficient runs as follows: (303.15 K, dilutor) 15 ± 0.8; (313.15 K, dilutor) 13.9 ± 0.7; (323.15 K, dilutor) 13.3 ± 0.7; (333.15 K, dilutor) 13.2 ± 0.7.

On to `CCCCCCCC` [octane] + CCCCCCCCn1cc[n+](C)c1.O=S(=O)([N-]S(=O)(=O)C(F)(F)F)C(F)(F)F, for which the activity coefficient runs as follows: (303.15 K, Chromatography) 8.92 ± 0.41; (313.15 K, Chromatography) 8.43 ± 0.39; (323.15 K, Chromatography) 8.14 ± 0.37; (333.15 K, Chromatography) 7.82 ± 0.36.

With `CCCCCCCC` [octane] + CCCCCC[n+]1ccn(C)c1.O=S(=O)([N-]S(=O)(=O)C(F)(F)F)C(F)(F)F, the activity coefficient runs as follows: (303.15 K, Chromatography) 15.2 ± 0.7; (303.15 K, dilutor) 14.4 ± 0.7; (313.15 K, Chromatography) 14.3 ± 0.7; (313.15 K, dilutor) 14.1 ± 0.7; (323.15 K, Chromatography) 13.5 ± 0.6; (323.15 K, dilutor) 13.1 ± 0.7. In addition, the activity coefficient was found to be 13 ± 0.6 (333.15 K, Chromatography) and 12.8 ± 0.6 (333.15 K, dilutor).

For `CCCCCCCC` [octane] + CCCC[N+]1(C)CCCC1.O=S(=O)([N-]S(=O)(=O)C(F)(F)F)C(F)(F)F, the activity coefficient runs as follows: (303.15 K, dilutor) 28.3 ± 1.4; (313.15 K, dilutor) 26.5 ± 1.3; (323.15 K, dilutor) 25.2 ± 1.3; (333.15 K, dilutor) 23.7 ± 1.2.

On to `CCCC(C)=O` [pentan-2-one] + CCCCCC[n+]1ccn(C)c1.O=S(=O)([N-]S(=O)(=O)C(F)(F)F)C(F)(F)F, for which the activity coefficient is, setting by setting: (303.15 K, Chromatography) 0.51 ± 0.03; (313.15 K, Chromatography) 0.52 ± 0.03; (323.15 K, Chromatography) 0.54 ± 0.03; (333.15 K, Chromatography) 0.55 ± 0.03.

As for `CCCC(C)=O` [pentan-2-one] + CCCC[N+]1(C)CCCC1.O=S(=O)([N-]S(=O)(=O)C(F)(F)F)C(F)(F)F, the activity coefficient is, setting by setting: (303.15 K, dilutor) 0.63 ± 0.03; (313.15 K, dilutor) 0.66 ± 0.03; (323.15 K, dilutor) 0.68 ± 0.03; (333.15 K, dilutor) 0.71 ± 0.04.

Regarding `CCCCC` [pentane] + CCCCCCCCn1cc[n+](C)c1.O=S(=O)([N-]S(=O)(=O)C(F)(F)F)C(F)(F)F, the activity coefficient was 4.07 ± 0.19 (303.15 K, Chromatography); 3.98 ± 0.2 (303.15 K, dilutor); 3.94 ± 0.18 (313.15 K, Chromatography); 3.92 ± 0.2 (313.15 K, dilutor); 3.78 ± 0.17 (323.15 K, Chromatography); 3.87 ± 0.19 (323.15 K, dilutor). For the same molecule, the activity coefficient by setting is: (333.15 K, Chromatography) 3.6 ± 0.16; (333.15 K, dilutor) 3.84 ± 0.19.

With `CCCCC` [pentane] + CCCCCC[n+]1ccn(C)c1.O=S(=O)([N-]S(=O)(=O)C(F)(F)F)C(F)(F)F, the activity coefficient runs as follows: (303.15 K, Chromatography) 5.95 ± 0.27; (303.15 K, dilutor) 5.93 ± 0.3; (313.15 K, Chromatography) 5.76 ± 0.26; (313.15 K, dilutor) 5.67 ± 0.28; (323.15 K, Chromatography) 5.65 ± 0.26; (323.15 K, dilutor) 5.48 ± 0.27. Moreover, the activity coefficient by setting is: (333.15 K, Chromatography) 5.52 ± 0.25; (333.15 K, dilutor) 5.27 ± 0.26.

Regarding `CCCCC` [pentane] + CCCC[N+]1(C)CCCC1.O=S(=O)([N-]S(=O)(=O)C(F)(F)F)C(F)(F)F, the activity coefficient (303.15 K, dilutor) amounted to 9.22 ± 0.46; the activity coefficient (313.15 K, dilutor) came out at 9.18 ± 0.46; the activity coefficient (323.15 K, dilutor) was determined as 8.62 ± 0.43; the activity coefficient (333.15 K, dilutor) was found to be 8.29 ± 0.41.

As to `CCCO` [propan-1-ol] + CCCCCCCCn1cc[n+](C)c1.O=S(=O)([N-]S(=O)(=O)C(F)(F)F)C(F)(F)F, the activity coefficient was 1.67 ± 0.07 (303.15 K, Chromatography); 1.51 ± 0.06 (313.15 K, Chromatography); 1.35 ± 0.05 (323.15 K, Chromatography); 1.24 ± 0.04 (333.15 K, Chromatography).
